Assays:
[1] = molecular target: T1, Human pancreatic lipase (Homo sapiens, UniProt P16233); assay: Lipase assay (Sigma Lipase-PS Kit); type: biochemical; details: same top concentration (0.15 mg/ml)
T1 construct: purchased Sigma
T1 sequence (P16233 17-465): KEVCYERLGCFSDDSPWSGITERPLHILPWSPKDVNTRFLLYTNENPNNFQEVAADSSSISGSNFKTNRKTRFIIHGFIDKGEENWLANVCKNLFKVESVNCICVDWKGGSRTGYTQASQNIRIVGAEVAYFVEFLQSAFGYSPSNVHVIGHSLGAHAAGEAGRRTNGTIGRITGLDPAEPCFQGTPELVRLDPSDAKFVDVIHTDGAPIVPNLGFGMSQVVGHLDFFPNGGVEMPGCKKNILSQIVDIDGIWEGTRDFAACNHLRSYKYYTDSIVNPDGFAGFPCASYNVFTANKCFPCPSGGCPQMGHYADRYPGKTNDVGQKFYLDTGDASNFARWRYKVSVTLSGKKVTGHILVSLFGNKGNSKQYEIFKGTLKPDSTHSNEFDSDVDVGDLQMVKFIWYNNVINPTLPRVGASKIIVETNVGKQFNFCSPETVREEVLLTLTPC
T1 sequence (P02703 23-112 partner): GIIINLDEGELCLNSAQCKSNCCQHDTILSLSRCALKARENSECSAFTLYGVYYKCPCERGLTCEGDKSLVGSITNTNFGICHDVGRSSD
Procedure: (§1) The purified compounds and extracts were made up 2 mg/ml solutions in water using initially a drop of DMSO if required for solubility.
Sigma Lipase-PS Kit (Catalogue Number 805-A)
Human pancreatic lipase was diluted 1.5:5 prior to use. […] Color formation was measured at 550 nm after 30 minutes.

[2] = molecular target: T2, porcine pancreatic amylase (Sus scrofa, UniProt P00690); assay: Amylase assay (Sigma INFINITY reagent); type: biochemical, pig; details: tested at 0.12 mg/ml, mean n=3
T2 construct: purchased Sigma A6255
T2 sequence (P00690 16-511): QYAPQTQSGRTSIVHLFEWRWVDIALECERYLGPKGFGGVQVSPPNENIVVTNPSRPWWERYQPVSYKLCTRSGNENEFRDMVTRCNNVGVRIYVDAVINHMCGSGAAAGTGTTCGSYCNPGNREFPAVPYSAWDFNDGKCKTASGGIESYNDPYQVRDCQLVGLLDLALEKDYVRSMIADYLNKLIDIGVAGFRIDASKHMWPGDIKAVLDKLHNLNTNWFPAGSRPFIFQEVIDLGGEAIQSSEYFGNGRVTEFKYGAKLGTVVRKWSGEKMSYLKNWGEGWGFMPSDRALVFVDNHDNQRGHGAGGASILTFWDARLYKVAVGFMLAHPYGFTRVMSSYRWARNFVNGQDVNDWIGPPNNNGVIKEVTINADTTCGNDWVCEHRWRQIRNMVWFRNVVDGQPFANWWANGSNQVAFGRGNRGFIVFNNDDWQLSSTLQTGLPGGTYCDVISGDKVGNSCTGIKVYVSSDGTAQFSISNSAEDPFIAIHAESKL
Procedure: as §1
Sigma INFINITY Powder Reagent (Catalogue Number 568-20)
Sigma α-amylase (A6255, porcine pancreatic amylase as saline suspension), diluted to 35 units/ml. […] The rate of color formation was measured over five minutes, after which the final absorbance was measured at 405 nm as an endpoint recording.

[3] = test system: α-glucosidase (G5003, from S. cerevisiae); assay: α-Glucosidase assay (p-nitrophenyl-α-D-glucopyranoside); type: biochemical; details: tested at 0.28 mg/ml, mean n=3
Procedure: as §1

| α-amylase inhibition (in words, FIG. 2) [2] | Compound | inhibition at 150 µg/mL [1] [%] | α-glucosidase inhibition (in words, FIG. 2) [3] |
| --- | --- | --- | --- |
|  | CCCCCCCCCCC[C@@H](C[C@@H]1OC(=O)[C@H]1CCCCCC)OC(=O)[C@H](CC(C)C)NC=O [Orlistat] | ≤ 60 |  |
| inhibition to be restored | COc1cc(O)c2c(=O)c(O[C@@H]3O[C@@H](C)[C@H](O)[C@@H](O)[C@H]3O)c(-c3ccc(O)c(O)c3)oc2c1 [compound 3, rhamnitrin] |  |  |
| good inhibition | Oc1ccc(/C=C2\c3cc(O)cc(O)c3C(c3ccc(O)cc3)C2c2cc(O)cc(O)c2)cc1 (stereo not drawn) [compound 6, parthenocissin A] |  |  |
|  | Oc1ccc(C=C2c3c(O)cc(O)cc3C(c3ccc(O)cc3)C2c2cc(O)ccc2O)cc1 (stereo not drawn) [compound 7, 3-(4-hydroxybenzylidene)-2-(2,5-dihydroxyphenyl)-1-(4-hydroxyphenyl)indane-4,6-diol] |  | fairly specific as an inhibitor |

| Compound | α-amylase inhibition (in words, FIG. 2) [2] | inhibition at 150 µg/mL [1] [%] | α-glucosidase inhibition (in words, FIG. 2) [3] |
| --- | --- | --- | --- |
| quercitrin-3-O″-acetate [compound 5] | inhibition to be restored |  | promoted the glucosidase activity |

From US8362090B2, “Methods and related compositions using specific flavonoids and indanes to reduce weight and inhibit lipase, α-amylase and α-glucosidase activity in mammals” (Gateway Health Alliances, Inc., priority 2007, dated 2013)
